For 15 molecules, Ki results are on record in US9145426B2, “Pyrrolidine-fused thiadiazine dioxide compounds as BACE inhibitors, compositions, and their use” (Merck Sharp & Dohme Corp., priority 2011, dated 2015).

In general, Ki refers to a measure of affinity in units of concentration, obtained from inhibition or displacement.

Test [1] has as its target soluble human BACE1 catalytic domain (Homo sapiens (Human), UniProt P56817). In words: BACE1 HTRF FRET Assay. The format is biochemical. Conditions: calculated from IC50 using the Cheng-Prusoff equation; read-out: BACE-1 Ki. An excerpt:
Na^+-Acetate pH 5.0; 1% Brij-35; Glycerol; Dimethyl Sulfoxide (DMSO); Recombinant human soluble BACE1 catalytic domain (>95% pure); APP Swedish mutant peptide substrate (QSY7-APP^swe-Eu): QSY7-[…]-Europium-amide.
A homogeneous time-resolved FRET assay was used to determine IC50 values for inhibitors of the soluble human BACE1 catalytic domain. This assay monitored the increase of 620 nm fluorescence that resulted from BACE1 cleavage of an APPswedish APP^swe mutant peptide FRET substrate (QSY7-[…]-Europium-amide). This substrate contained an N-terminal QSY7 moiety that served as a quencher of the C-terminal Europium fluorophore (620 nm Em). In the absence of enzyme activity, 620 nm fluorescence was low in the assay and increased linearly over 3 hours in the presence of uninhibited BACE1 enzyme. Inhibition of BACE1 cleavage of the QSY7-APP^swe-Eu substrate by inhibitors was manifested as a suppression of 620 nm fluorescence.
Reactions were initiated by addition of 10 μl of 600 nM QSY7-APP^swe-Eu substrate (200 nM final) to give a final reaction volume of 30 μl in a 384 well Nunc HTRF plate. The reactions were incubated at 30° C. for 1.5 hours. The 620 nm fluorescence was then read on a Rubystar HTRF plate reader (BMG Labtechnologies) using a 50 […]s delay followed by a 400 millisecond acquisition time window. Inhibitor IC50 values were derived from non-linear regression analysis of concentration response curves.

For test [2], the target named is purified human autoBACE-2 (Homo sapiens, UniProt Q9Y5Z0). In words: BACE-2 Assay (BACE-HTRF assay). In kind it is biochemical. Conditions: calculated from IC50 using the Cheng-Prusoff equation. The procedure:
DMSO was present at 5% final concentration in the assay. Following laser excitation of sample wells at 320 nm, the fluorescence signal at 620 nm was collected for 400 ms following a 50 μs delay on a RUBYstar HTRF plate reader (BMG Labtechnologies). […] The Ki values were calculated from the IC50 using the Cheng-Prusoff equation.

purified human autoBACE-2, sequence (Q9Y5Z0 63-518 limits assumed): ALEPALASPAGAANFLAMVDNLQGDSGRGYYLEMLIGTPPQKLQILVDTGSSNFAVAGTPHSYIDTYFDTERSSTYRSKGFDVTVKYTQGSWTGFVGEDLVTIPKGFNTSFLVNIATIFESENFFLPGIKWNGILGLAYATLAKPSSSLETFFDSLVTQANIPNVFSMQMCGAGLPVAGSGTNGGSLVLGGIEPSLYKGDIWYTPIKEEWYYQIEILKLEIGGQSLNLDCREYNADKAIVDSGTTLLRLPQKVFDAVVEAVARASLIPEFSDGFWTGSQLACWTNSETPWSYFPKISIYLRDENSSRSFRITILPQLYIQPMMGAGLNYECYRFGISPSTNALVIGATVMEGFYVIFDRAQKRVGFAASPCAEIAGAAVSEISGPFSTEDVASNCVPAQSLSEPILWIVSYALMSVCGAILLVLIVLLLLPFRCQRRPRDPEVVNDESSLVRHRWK
soluble human BACE1 catalytic domain, sequence (P56817 75-416): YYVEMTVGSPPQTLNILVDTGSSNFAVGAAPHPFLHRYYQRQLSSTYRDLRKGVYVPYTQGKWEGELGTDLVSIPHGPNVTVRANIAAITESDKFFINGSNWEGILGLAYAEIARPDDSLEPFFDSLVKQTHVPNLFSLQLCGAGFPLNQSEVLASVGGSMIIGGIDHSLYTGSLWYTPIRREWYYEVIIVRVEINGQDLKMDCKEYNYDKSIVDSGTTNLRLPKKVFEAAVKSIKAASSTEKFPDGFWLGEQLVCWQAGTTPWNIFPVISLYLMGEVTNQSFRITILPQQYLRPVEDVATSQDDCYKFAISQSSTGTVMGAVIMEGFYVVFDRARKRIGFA

As for `Cc1cccc(N2CC3C(c4ccccc4)(C2)NC(=N)N(C)S3(=O)=O)c1` (racemic) [Ex. 17], in test [1], the Ki was 1560 nM.
As to `COc1nc(N2CC3[C@](c4cc(NC(=O)c5ccc(F)cn5)ccc4F)(C2)NC(=N)N(C)S3(=O)=O)nc(C)c1F` (mixture of isomers) [Ex. 19], the Ki in test [2] was 1.6 nM; in test [1] it was 1.2 nM.
`CC(=O)N1CC2[C@](c3cc(NC(=O)c4ccc(F)cn4)ccc3F)(C1)NC(=N)N(C)S2(=O)=O` (mixture of isomers) [Ex. 18]: the Ki in test [2] is 3.2 nM; in test [1], 32 nM.
In the case of `COc1nc(N2C[C@@H]3[C@](c4ccccc4)(C2)NC(=N)N(C)S3(=O)=O)nc(C)c1F` [Ex. 1], the Ki in test [2] was 16 nM.
Turning to `COc1nc(N2C[C@@H]3[C@](c4ccc(F)cc4)(C2)NC(=N)N(C)S3(=O)=O)nc(C)c1F` (stereo in doubt) [Ex. 2], in test [2], the Ki is 14 nM.
For the molecule `COCc1cc(OC)nc(N2CC3[C@](c4cc(F)c(F)cc4F)(C2)NC(=N)N(C)S3(=O)=O)c1` (some centres unmarked) [Ex. 7], the values for the Ki in test [2] and in test [1] were 3.2 nM and 7 nM, respectively.
On to `COc1nc(N2CC3C(c4ccccc4)(C2)NC(=N)N(C)S3(=O)=O)nc(OC)c1F` (racemic) [Ex. 13], for which the Ki in test [1] is 30 nM.
In the case of `COCc1cc(OC)nc(N2CC3[C@](c4ccccc4F)(C2)NC(=N)N(C)S3(=O)=O)c1` (some centres unmarked) [Ex. 8], the Ki in test [2] is 5 nM; in test [1], 7 nM.
As to `CCc1nc(N2CC3C(c4ccccc4)(C2)NC(=N)N(C)S3(=O)=O)nc(OC)c1F` (racemic) [Ex. 15], in test [1], the Ki was 82 nM.
As to `COc1nc(N2CC3[C@](c4ccc(F)cc4F)(C2)NC(=N)N(C)S3(=O)=O)nc(C)c1F` (some centres unmarked) [Ex. 6], the Ki in test [2] is 8.5 nM.
On the same count and under the same terms, for `COCc1cc(OC)nc(N2C[C@@H]3[C@](c4cc(F)ccc4F)(C2)NC(=N)N(C)S3(=O)=O)c1` (stereo in doubt) [Ex. 9] the value was 1.7 nM.
As for `CCOCc1cc(OC)nc(N2CC3C(c4ccccc4)(C2)NC(=N)N(C)S3(=O)=O)c1` (racemic) [Ex. 11], the inhibitory constant (Ki) in test [1] is 61 nM.
Consider `COc1nc(N2C[C@@H]3[C@](c4cc(F)c(F)cc4F)(C2)NC(=N)N(C)S3(=O)=O)nc(C)c1F` (stereo in doubt) [Ex. 5], for which the Ki in test [2] was 19 nM; in test [1], 32 nM.
Take `COc1nc(N2C[C@@H]3[C@](c4ccccc4F)(C2)NC(=N)N(C)S3(=O)=O)nc(C)c1F` (stereo in doubt) [Ex. 4]: the Ki in test [2] was 5.4 nM.
Regarding `COc1nc(N2C[C@@H]3[C@](c4cc(F)ccc4F)(C2)NC(=N)N(C)S3(=O)=O)nc(C)c1F` (stereo in doubt) [Ex. 3], the Ki in test [2] was 14 nM.
